Tests used:
[1] = biological target: Human HDAC1 (Homo sapiens (Human), UniProt Q13547); assay: HDAC enzymatic assay, HDAC1; format: biochemical; settings: 10-dose IC50 mode with a 3-fold serial dilution; read-out: HDAC subtypes IC50 HDAC1
Method: (§1) The IC50 values for aforementioned compounds against HDACs were determined. HDAC 1 to 11 can be assayed by using acetylated AMC-labeled peptide substrate.
(§2) Human HDAC1 GenBank Accession No. NM_004964): Full length with C-terminal GST tag, MW=79.9 kDa, Human HDAC2 (GenBank Accession No. Q92769): Full length with C-terminal His tag, MW=60 kDa. Human HDAC3/NcoR2 (GenBank Accession No. […] for HDAC3, GenBank Accession No. NM_006312 for NcoR2): Complex of human HDAC3, full length with C-terminal His tag, MW=49.7 kDa, and human NCOR2, N-terminal GST tag, MW=39 kDa. Human HDAC6 (GenBank Accession No. BC069243): Full length with N-terminal GST tag, MW=159 kDa. Human HDAC8 (GenBank Accession No. NM018486): Full length, MW=42 kDa, expressed in an E. coli expression system.
(§3) Human HDAC1, Human HDAC2, Human HDAC3/NcoR2, Human HDAC6, Human HDAC10, and Human HDAC11 were all expressed by baculovirus expression system in Sf9 cells.
(§4) 50 μM HDAC substrate. 1% DMSO final. Incubation for 2 hours at 30° C.

[2] = biological target: Human HDAC8 (Homo sapiens (Human), UniProt Q9BY41); assay: HDAC enzymatic assay, HDAC8; format: biochemical; settings: 10-dose IC50 mode with a 3-fold serial dilution; read-out: HDAC subtypes IC50 HDAC8
Sequence of Human HDAC8 (Q9BY41 whole entry): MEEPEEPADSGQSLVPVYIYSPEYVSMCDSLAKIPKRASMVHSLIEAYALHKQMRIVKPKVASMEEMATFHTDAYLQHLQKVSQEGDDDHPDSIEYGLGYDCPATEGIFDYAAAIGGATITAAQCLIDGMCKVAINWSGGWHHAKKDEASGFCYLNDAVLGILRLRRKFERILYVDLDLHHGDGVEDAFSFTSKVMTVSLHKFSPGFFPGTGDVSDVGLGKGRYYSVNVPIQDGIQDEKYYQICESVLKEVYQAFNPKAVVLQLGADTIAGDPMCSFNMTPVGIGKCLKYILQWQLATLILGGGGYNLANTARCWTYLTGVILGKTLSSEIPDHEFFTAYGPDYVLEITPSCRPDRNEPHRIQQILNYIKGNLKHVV
Method: as §1, §2, §4

[3] = biological target: Human HDAC6 (Homo sapiens (Human), UniProt Q9UBN7); assay: HDAC enzymatic assay, HDAC6; format: biochemical; settings: 10-dose IC50 mode with a 3-fold serial dilution; read-out: HDAC subtypes IC50 HDAC6
Sequence of Human HDAC6 (Q9UBN7 whole entry): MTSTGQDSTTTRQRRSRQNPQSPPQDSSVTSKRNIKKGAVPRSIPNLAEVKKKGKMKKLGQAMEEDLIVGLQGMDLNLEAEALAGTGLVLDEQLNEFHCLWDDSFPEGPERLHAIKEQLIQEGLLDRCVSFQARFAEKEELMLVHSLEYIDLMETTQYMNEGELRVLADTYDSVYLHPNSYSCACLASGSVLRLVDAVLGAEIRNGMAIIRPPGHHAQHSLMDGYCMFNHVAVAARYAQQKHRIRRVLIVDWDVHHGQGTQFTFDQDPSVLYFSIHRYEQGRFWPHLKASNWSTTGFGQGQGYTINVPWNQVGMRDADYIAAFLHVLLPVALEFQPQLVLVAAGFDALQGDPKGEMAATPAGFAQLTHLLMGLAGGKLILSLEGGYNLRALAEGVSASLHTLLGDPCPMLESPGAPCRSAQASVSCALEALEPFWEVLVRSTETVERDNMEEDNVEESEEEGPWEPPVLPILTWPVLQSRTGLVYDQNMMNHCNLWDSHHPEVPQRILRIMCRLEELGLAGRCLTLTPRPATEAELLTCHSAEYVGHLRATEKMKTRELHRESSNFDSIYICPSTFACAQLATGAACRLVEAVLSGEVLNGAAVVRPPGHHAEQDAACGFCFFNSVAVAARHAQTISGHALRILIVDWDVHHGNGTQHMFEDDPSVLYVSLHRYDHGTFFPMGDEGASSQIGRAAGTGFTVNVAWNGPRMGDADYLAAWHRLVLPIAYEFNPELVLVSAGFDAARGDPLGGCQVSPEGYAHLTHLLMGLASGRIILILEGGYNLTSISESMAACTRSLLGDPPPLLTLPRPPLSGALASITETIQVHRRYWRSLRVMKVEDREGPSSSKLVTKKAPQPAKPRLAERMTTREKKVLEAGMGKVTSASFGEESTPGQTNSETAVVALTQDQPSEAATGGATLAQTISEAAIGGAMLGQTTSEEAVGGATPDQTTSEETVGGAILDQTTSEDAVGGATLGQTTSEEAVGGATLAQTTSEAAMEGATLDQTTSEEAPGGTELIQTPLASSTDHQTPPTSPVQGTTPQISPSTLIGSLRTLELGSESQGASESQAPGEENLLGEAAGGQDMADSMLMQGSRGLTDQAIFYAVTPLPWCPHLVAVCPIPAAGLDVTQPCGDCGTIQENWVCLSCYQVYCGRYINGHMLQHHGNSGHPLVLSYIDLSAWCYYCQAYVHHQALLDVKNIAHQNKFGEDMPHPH
Method: as §1, §2, §3, §4

[4] = biological target: Human HDAC11 (Homo sapiens (Human), UniProt Q96DB2); assay: HDAC enzymatic assay, HDAC11; format: biochemical; settings: 10-dose IC50 mode with a 3-fold serial dilution; read-out: HDAC subtypes IC50 HDAC11
Sequence of Human HDAC11 (Q96DB2 whole entry): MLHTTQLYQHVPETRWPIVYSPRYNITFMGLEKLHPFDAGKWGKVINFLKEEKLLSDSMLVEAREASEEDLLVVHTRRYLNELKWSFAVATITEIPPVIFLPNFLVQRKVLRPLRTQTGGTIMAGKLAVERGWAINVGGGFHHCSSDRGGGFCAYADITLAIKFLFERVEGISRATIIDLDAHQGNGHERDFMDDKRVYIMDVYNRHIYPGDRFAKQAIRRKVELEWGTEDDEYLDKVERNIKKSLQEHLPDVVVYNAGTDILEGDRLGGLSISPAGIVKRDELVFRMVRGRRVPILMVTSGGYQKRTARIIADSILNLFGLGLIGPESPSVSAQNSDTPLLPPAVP
Method: as §1, §2, §3, §4

[5] = system: U87MG; settings: human, 72 h
Method: (§5) Cells were seeded in 96-well plates at a density of 5×10^3 cells per well and allowed to attach for 24 h before compound treatment. […] At end of the treatment period 72 h, 20 μl (5 mg/mL) 3-(4,5-dimethylthiazol-2-yl)-2,5-diphenyl-tetrazolium bromide (MTT) reagent was added each well. After 4 h incubation at 37° C., the supernatant was aspirated and the formazan crystals were dissolved in 100 μl of DMSO at 37° C. for 10 min with gentle agitation. The absorbance was measured at 570 nm using the Molecular Devices Microplate Reader. […] IC50 values were calculated from the relative viability values and concentrations by regression analysis.

[6] = system: LNCap; settings: human, 72 h
Method: as §5

[7] = system: A549; settings: human, 72 h
Method: as §5

[8] = system: PANC1; settings: human, 72 h
Method: as §5

[9] = system: HepG2; settings: human, 72 h
Method: as §5

[10] = in vitro; settings: human
Method: as §5

[11] = in vitro; settings: monkey
Method: as §5

[12] = system: HL60; assay: Cell proliferation assay MTT, HL60; settings: read-out: Cytotoxicity IC50 Leukemia HL60, 72 hr treated
Method: as §5

[13] = system: MV4-11; assay: Cell proliferation assay MTT, MV4-11; settings: human, MV4-11 leukemia cells, 72 h
Method: as §5

[14] = system: MOLM13; assay: Cell proliferation assay MTT, MOLM13; settings: human, MOLM13 leukemia cells, 72 h
Method: as §5

Sequence of Human HDAC1 (Q13547 whole entry): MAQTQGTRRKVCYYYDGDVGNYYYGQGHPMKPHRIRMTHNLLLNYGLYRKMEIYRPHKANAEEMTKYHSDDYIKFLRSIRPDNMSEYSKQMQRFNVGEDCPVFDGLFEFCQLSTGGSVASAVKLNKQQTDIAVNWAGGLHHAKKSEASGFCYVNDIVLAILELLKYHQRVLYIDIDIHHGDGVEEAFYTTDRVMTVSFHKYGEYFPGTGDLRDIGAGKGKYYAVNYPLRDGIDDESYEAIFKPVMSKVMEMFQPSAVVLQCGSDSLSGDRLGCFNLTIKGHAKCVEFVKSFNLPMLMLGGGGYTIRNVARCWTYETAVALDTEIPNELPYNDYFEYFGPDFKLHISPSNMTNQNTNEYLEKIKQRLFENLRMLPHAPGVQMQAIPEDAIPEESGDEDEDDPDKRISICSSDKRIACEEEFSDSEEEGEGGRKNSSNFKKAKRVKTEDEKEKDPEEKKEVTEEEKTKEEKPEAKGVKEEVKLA

`O=C(NO)c1ccc(Cn2c(=O)n(CCc3ccccc3)c(=O)c3ccc(O)cc32)cc1` [Compound 4, N-hydroxy-4-((7-hydroxy-2,4-dioxo-3-phenethyl-3,4-dihydroquinazolin-1(2H)-yl)methyl)benzamide] gave an IC50 [1] of 8.28 µM, an IC50 [2] of 2.75 µM and an IC50 [3] of 0.028 µM. The IC50 [4] was 5.5 µM, the IC50 [5] was 4.28 ± 0.67 µM and the IC50 [6] was 2.97 ± 0.22 µM. For the same compound, the IC50 [7] was 8.04 ± 0.28 µM, the IC50 [8] was 6.54 ± 0.11 µM and the IC50 [9] was 6.12 ± 0.33 µM. The IC50 at 72 h [10] was 147.1 ± 0.51 µM, the IC50 at 72 h [11] was 156.4 ± 0.42 µM and the IC50 [12] was 0.67 ± 0.09 µM. For the same compound, the IC50 [13] was 0.75 ± 0.11 µM and the IC50 [14] was 0.81 ± 0.09 µM.
`O=C(NO)c1ccc(Cn2c(=O)n(CCc3ccccc3)c(=O)c3ccc(Cl)cc32)cc1` [Compound 8, 4-((7-chloro-2,4-dioxo-3-phenethyl-3,4-dihydroquinazolin-1(2H)-yl)methyl)-N-hydroxybenzamide] showed an IC50 [1] of 9.54 µM, an IC50 [2] of 1.64 µM and an IC50 [3] of 0.021 µM. For the same compound, the IC50 [5] was 2.1 ± 0.06 µM, the IC50 [6] was 1.07 ± 0.14 µM and the IC50 [7] was 2.28 ± 0.27 µM. It also gave an IC50 [8] of 3.52 ± 0.09 µM, an IC50 [9] of 2.74 ± 0.29 µM and an IC50 at 72 h [10] of 75.79 ± 0.12 µM. For the same compound, the IC50 at 72 h [11] was 85.74 ± 0.17 µM, the IC50 [12] was 0.44 ± 0.04 µM and the IC50 [13] was 0.37 ± 0.02 µM. It also gave an IC50 [14] of 0.48 ± 0.08 µM.
With `O=C(NO)c1ccc(Cn2c(=O)n(CCc3ccc(F)cc3)c(=O)c3ccccc32)cc1` [Compound 14, 4-((3-(4-fluorophenethyl)-2,4-dioxo-3,4-dihydroquinazolin-1(2H)-yl)methyl)-N-hydroxybenzamide] the IC50 [1] was 10.8 µM, the IC50 [2] was 1.05 µM and the IC50 [3] was 0.023 µM. The IC50 [4] was 14.7 µM, the IC50 [5] was 6.31 ± 0.63 µM and the IC50 [6] was 4.25 ± 0.21 µM. The IC50 [7] was 6.35 ± 0.11 µM, the IC50 [8] was over 10 µM and the IC50 [9] was 6.82 ± 0.12 µM. The IC50 at 72 h [10] was 83.81 ± 0.19 µM, the IC50 at 72 h [11] was 116 ± 0.23 µM and the IC50 [12] was 1.37 ± 0.07 µM. It also gave an IC50 [13] of 1.77 ± 0.05 µM and an IC50 [14] of 1.62 ± 0.09 µM.
Work on `O=C(NO)c1ccc(Cn2c(=O)n(CCc3ccccc3)c(=O)c3cc(F)ccc32)cc1` [Compound 17, 4-((6-fluoro-2,4-dioxo-3-phenethyl-3,4-dihydroquinazolin-1(2H)-yl)methyl)-N-hydroxybenzamide] yielded an IC50 [1] of 13.4 µM, an IC50 [2] of 1.16 µM and an IC50 [3] of 0.057 µM. The IC50 [4] was 16.7 µM, the IC50 [5] was 6.13 ± 0.78 µM and the IC50 [6] was 5.74 ± 0.51 µM. For the same compound, the IC50 [7] was 8.96 ± 0.17 µM, the IC50 [8] was 8.47 ± 0.04 µM and the IC50 [9] was 6.64 ± 0.92 µM. For the same compound, the IC50 at 72 h [10] was 100.5 ± 0.37 µM, the IC50 at 72 h [11] was 123.2 ± 0.33 µM and the IC50 [12] was 2.37 ± 0.11 µM. The IC50 [13] was 3.13 ± 0.09 µM and the IC50 [14] was 356 ± 0.09 µM.
Compound `Cc1ccc2c(=O)n(CCc3ccccc3)c(=O)n(Cc3ccc(C(=O)NO)cc3)c2c1` [Compound 22, N-hydroxy-4-((7-methyl-2,4-dioxo-3-phenethyl-3,4-dihydroquinazolin-1(2H)-yl)methyl)benzamide] has an IC50 [1] of 10.9 µM, an IC50 [2] of 2.52 µM and an IC50 [3] of 0.17 µM. The IC50 [4] was 52.1 µM, the IC50 [5] was 5.68 ± 0.19 µM and the IC50 [6] was 5.38 ± 0.41 µM. The IC50 [7] was 7.44 ± 0.12 µM, the IC50 [8] was 8.73 ± 0.71 µM and the IC50 [9] was 6.82 ± 0.44 µM. For the same compound, the IC50 at 72 h [10] was 135.1 ± 0.39 µM, the IC50 at 72 h [11] was 127.4 ± 0.28 µM and the IC50 [12] was 1.46 ± 0.08 µM. It also gave an IC50 [13] of 1.64 ± 0.07 µM and an IC50 [14] of 1.77 ± 0.05 µM.
Work on `N#Cc1ccc2c(=O)n(CCc3ccccc3)c(=O)n(Cc3ccc(CC(=O)NO)cc3)c2c1` [Compound 23, 2-(4-((7-cyano-2,4-dioxo-3-phenethyl-3,4-dihydroquinazolin-1(2H)-yl)methyl)phenyl)-N-hydroxyacetamide] yielded an IC50 [5] of 4.12 ± 0.06 µM, an IC50 [6] of 4.05 ± 0.07 µM and an IC50 [7] of 4.21 ± 0.03 µM. The IC50 [8] was 5.12 ± 0.11 µM, the IC50 [9] was 4.24 ± 0.03 µM and the IC50 at 72 h [10] was 92.11 ± 0.69 µM. For the same compound, the IC50 at 72 h [11] was 95.27 ± 0.58 µM, the IC50 [12] was 1.25 ± 0.08 µM and the IC50 [13] was 1.19 ± 0.07 µM. The IC50 [14] was 2.32 ± 0.07 µM.
Work on `O=C(NO)c1ccc(Cn2c(=O)n(CCc3cccc(F)c3)c(=O)c3ccccc32)cc1` [Compound 26, 4-((3-(3-fluorophenethyl)-2,4-dioxo-3,4-dihydroquinazolin-1(2H)-yl)methyl)-N-hydroxybenzamide] yielded an IC50 [1] of 13.2 µM, an IC50 [2] of 0.428 µM and an IC50 [3] of 0.01 µM. The IC50 [4] was 10.7 µM, the IC50 [5] was 3.77 ± 0.25 µM and the IC50 [6] was 0.96 ± 0.02 µM. For the same compound, the IC50 [7] was 4.58 ± 0.21 µM, the IC50 [8] was 5.03 ± 0.19 µM and the IC50 [9] was 4.03 ± 0.11 µM. It also gave an IC50 at 72 h [10] of 84.34 ± 0.73 µM, an IC50 at 72 h [11] of 93.26 ± 0.25 µM and an IC50 [12] of 3.12 ± 0.08 µM. For the same compound, the IC50 [13] was 3.71 ± 0.11 µM and the IC50 [14] was 4.01 ± 0.06 µM.
